Data on four molecules can be found in patent US9902716B2, “Fluorinated benzofuranyl-pyrimidine derivatives containing a sulfone group” (Bayer Pharma Aktiengesellschaft, priority 2014, dated 2018).

Test [1] concerns the target T1, CDK9/CycT1 (Homo sapiens, UniProt P50750).
T1 construct: Recombinant full-length His-tagged human CDK9 and CycT1; His; purchased Invitrogen PV4131; host or cells: insect cells
Kind of test: CDK9/CycT1 kinase assay (Method 1a, TR-FRET). The format is biochemical. The conditions noted are these: 10 μM ATP; for IC50: Method 1a; for Selectivity CDK9 over CDK2: IC50 (CDK2)/IC50 (CDK9): Methods 1a and 2a. The text has this:
1a. CDK9/CycT1 Kinase Assay:
CDK9/CycT1-inhibitory activity of compounds of the present invention was quantified employing the CDK9/CycT1 TR-FRET assay as described in the following paragraphs:
Recombinant full-length His-tagged human CDK9 and CycT1, expressed in insect cells and purified by Ni-NTA affinity chromatography, were purchased from Invitrogen (Cat. No PV4131). As substrate for the kinase reaction biotinylated peptide biotin-Ttds-YISPLKSPYKISEG (C-terminus in amid form) was used which can be purchased e.g. form the company JERINI Peptide Technologies (Berlin, Germany). For the assay 50 nl of a 100 fold concentrated solution of the test compound in DMSO was pipetted into a black low volume 384 well microtiter plate (Greiner Bio-One, Frickenhausen, Germany), 2 μl of a solution of CDK9/CycT1 in aqueous assay buffer [50 mM Tris/HCl pH 8.0, 10 mM MgCl2, 1.0 mM dithiothreitol, 0.1 mM sodium ortho-vanadate, 0.01% (v/v) Nonidet-P40 (Sigma)] were added and the mixture was incubated for 15 min at 22° C. to allow pre-binding of the test compounds to the enzyme before the start of the kinase reaction. Then the kinase reaction was started by the addition of 3 μl of a solution of adenosine-tri-phosphate (ATP, 16.7 μM=> final conc. in the 5 μl assay volume is 10 μM) and substrate (1.67 μM=> final conc. in the 5 μl assay volume is 1 μM) in assay buffer and the resulting mixture was incubated for a reaction time of 25 min at 22° C. The concentration of CDK9/CycT1 was adjusted depending of the activity of the enzyme lot and was chosen appropriate to have the assay in the linear range, typical concentrations were in the range of 1 μg/mL. The reaction was stopped by the addition of 5 μl of a solution of TR-FRET detection reagents (0.2 μM streptavidine-XL665 [Cisbio Bioassays, Codolet, France] and 1 nM anti-RB(pSer807/pSer811)-antibody from BD Pharmingen [#558389] and 1.2 nM LANCE EU-W1024 labeled anti-mouse IgG antibody [Perkin-Elmer, product no. AD0077]) in an aqueous EDTA-solution (100 mM EDTA, 0.2% (w/v) bovine serum albumin in 100 mM HEPES/NaOH pH 7.0).
The resulting mixture was incubated 1 h at 22° C. to allow the formation of complex between the phosphorylated biotinylated peptide and the detection reagents. Subsequently the amount of phosphorylated substrate was evaluated by measurement of the resonance energy transfer from the Euchelate to the streptavidine-XL. Therefore, the fluorescence emissions at 620 nm and 665 nm after excitation at 350 nm was measured in a HTRF reader, e.g. a Rubystar (BMG Labtechnologies, Offenburg, Germany) or a Viewlux (Perkin-Elmer). The ratio of the emissions at 665 nm and at […] was taken as the measure for the amount of phosphorylated substrate. The data were normalised (enzyme reaction without inhibitor=0% inhibition, all other assay components but no enzyme=100% inhibition).
On the technique in general: Time-resolved FRET reads energy transfer from a long-lived donor to a nearby acceptor.

Test [2] has as its system Caco-2 cells. Kind of test: Proliferation assay Caco-2 (Method 3, crystal violet). The format is cell-based. To be noted: Homo sapiens, 96 h; Caco-2, 4 days incubation; read-out: Inhibition of Caco-2 cell proliferation IC50. Here is the method:
Cultivated tumour cells (HeLa, human cervical tumour cells, ATCC CCL-2; NCI-H460, human non-small cell lung carcinoma cells, ATCC HTB-177; A2780, human ovarian carcinoma cells, ECACC #93112519; DU 145, hormone-independent human prostate carcinoma cells, ATCC HTB-81; HeLa-MaTu-ADR, multidrug-resistant human cervical carcinoma cells, EPO-GmbH Berlin; Caco-2, human colorectal carcinoma cells, ATCC HTB-37; B16F10, mouse melanoma cells, ATCC CRL-6475) were plated at a density of 5,000 cells/well (DU145, HeLa-MaTu-ADR), 3,000 cells/well (NCI-H460, HeLa), 2,500 cells/well (A2780), 1,500 cells/well (Caco-2), or 1,000 cells/well (B16F10) in a 96-well multititer plate in 200 μL of their respective growth medium supplemented 10% fetal calf serum. After 24 hours, the cells of one plate (zero-point plate) were stained with crystal violet (see below), while the medium of the other plates was replaced by fresh culture medium (200 μl), to which the test substances were added in various concentrations (0 μM, as well as in the range of 0.001-10 μM; the final concentration of the solvent dimethyl sulfoxide was 0.5%). The cells were incubated for 4 days in the presence of test substances. Cell proliferation was determined by staining the cells with crystal violet: the cells were fixed by adding 20 μl/measuring point of an 11% glutaric aldehyde solution for 15 minutes at room temperature. After three washing cycles of the fixed cells with water, the plates were dried at room temperature. The cells were stained by adding 100 μl/measuring point of a 0.1% crystal violet solution (pH 3.0). After three washing cycles of the stained cells with water, the plates were dried at room temperature. The dye was dissolved by adding 100 μl/measuring point of a 10% acetic acid solution. The extinction was determined by photometry at a wavelength of 595 nm. The change of cell number, in percent, was calculated by normalization of the measured values to the extinction values of the zero-point plate (=0%) and the extinction of the untreated (0 μm) cells (=100%). […]

Test [3] relates to NCI-H460 cells. Kind of test: Proliferation assay NCI-H460 (Method 3, crystal violet). It counts as cell-based. The conditions noted are these: Homo sapiens, 96 h; NCI-H460, 4 days incubation; read-out: Inhibition of NCI-H460 cell proliferation IC50. The procedure:
(§1) Cultivated tumour cells (HeLa, human cervical tumour cells, ATCC CCL-2; NCI-H460, human non-small cell lung carcinoma cells, ATCC HTB-177; A2780, human ovarian carcinoma cells, ECACC #93112519; DU 145, hormone-independent human prostate carcinoma cells, ATCC HTB-81; HeLa-MaTu-ADR, multidrug-resistant human cervical carcinoma cells, EPO-GmbH Berlin; Caco-2, human colorectal carcinoma cells, ATCC HTB-37; B16F10, mouse melanoma cells, ATCC CRL-6475) were plated at a density of 5,000 cells/well (DU145, HeLa-MaTu-ADR), 3,000 cells/well (NCI-H460, HeLa), 2,500 cells/well (A2780), 1,500 cells/well (Caco-2), or 1,000 cells/well (B16F10) in a 96-well multititer plate in 200 μL of their respective growth medium supplemented 10% fetal calf serum. After 24 hours, the cells of one plate (zero-point plate) were stained with crystal violet (see below), while the medium of the other plates was replaced by fresh culture medium (200 μl), to which the test substances were added in various concentrations (0 μM, as well as in the range of 0.001-10 μM; the final concentration of the solvent dimethyl sulfoxide was 0.5%). The cells were incubated for 4 days in the presence of test substances. Cell proliferation was determined by staining the cells with crystal violet: the cells were fixed by adding 20 μl/measuring point of an 11% glutaric aldehyde solution for 15 minutes at room temperature. After three washing cycles of the fixed cells with water, the plates were dried at room temperature. The cells were stained by adding 100 μl/measuring point of a 0.1% crystal violet solution (pH 3.0). After three washing cycles of the stained cells with water, the plates were dried at room temperature. The dye was dissolved by adding 100 μl/measuring point of a 10% acetic acid solution. The extinction was determined by photometry at a wavelength of 595 nm. The change of cell number, in percent, was calculated by normalization of the measured values to the extinction values of the zero-point plate (=0%) and the extinction of the untreated (0 μm) cells (=100%). The IC50 values (inhibitory concentration at 50% of maximal effect) were determined by means of a 4 parameter fit.

In test [4] the test system is HeLa-MaTu-ADR cells. Kind of test: Proliferation assay HeLa-MaTu-ADR (Method 3, crystal violet). It counts as cell-based. The conditions noted are these: Homo sapiens, 96 h, 4 days incubation, read-out: Inhibition of HeLa-MaTu-ADR cell proliferation IC50. The procedure: as §1

T1 sequence (P50750 whole entry): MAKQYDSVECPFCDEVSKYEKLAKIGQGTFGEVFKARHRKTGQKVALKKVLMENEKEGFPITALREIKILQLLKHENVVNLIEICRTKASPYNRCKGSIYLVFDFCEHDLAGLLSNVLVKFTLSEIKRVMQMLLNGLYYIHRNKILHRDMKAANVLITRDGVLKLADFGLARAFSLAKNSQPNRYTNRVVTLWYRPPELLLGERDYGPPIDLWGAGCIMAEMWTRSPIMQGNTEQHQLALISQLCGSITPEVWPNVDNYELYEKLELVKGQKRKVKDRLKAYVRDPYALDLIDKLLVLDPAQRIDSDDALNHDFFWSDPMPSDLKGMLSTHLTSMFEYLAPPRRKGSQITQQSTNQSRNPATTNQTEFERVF
T1 sequence (O60563 whole entry partner): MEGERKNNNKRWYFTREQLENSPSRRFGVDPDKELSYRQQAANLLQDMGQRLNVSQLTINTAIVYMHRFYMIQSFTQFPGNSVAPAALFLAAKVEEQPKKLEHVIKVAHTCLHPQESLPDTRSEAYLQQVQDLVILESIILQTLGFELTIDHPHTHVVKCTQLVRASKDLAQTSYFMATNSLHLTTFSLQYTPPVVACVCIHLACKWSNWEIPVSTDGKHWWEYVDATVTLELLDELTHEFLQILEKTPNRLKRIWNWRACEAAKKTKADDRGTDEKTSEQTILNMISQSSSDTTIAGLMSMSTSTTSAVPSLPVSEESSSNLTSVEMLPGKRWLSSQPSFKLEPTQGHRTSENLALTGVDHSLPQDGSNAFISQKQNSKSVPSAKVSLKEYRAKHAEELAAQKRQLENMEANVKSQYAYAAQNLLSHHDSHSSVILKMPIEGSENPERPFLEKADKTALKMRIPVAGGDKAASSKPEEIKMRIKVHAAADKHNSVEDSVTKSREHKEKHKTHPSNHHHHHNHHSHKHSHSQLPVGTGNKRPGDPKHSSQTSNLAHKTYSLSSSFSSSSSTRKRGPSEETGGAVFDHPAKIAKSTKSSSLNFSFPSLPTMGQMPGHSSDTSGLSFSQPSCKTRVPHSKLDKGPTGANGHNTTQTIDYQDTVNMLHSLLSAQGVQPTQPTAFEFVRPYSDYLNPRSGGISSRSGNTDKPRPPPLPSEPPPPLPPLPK

For `Cc1cc(CS(C)(=O)=O)cc(Nc2ncc(F)c(-c3ccc(F)c4ccoc34)n2)c1` [Example 4, 5-Fluoro-4-(4-fluoro-1-benzofuran-7-yl)-N-{3-methyl-5-[(methylsulfonyl)methyl]-phenyl}pyrimidin-2-amine], the IC50 in test [1] came to 2 nM; in test [2], 313 nM; in test [3], 146 nM; in test [4] it was 243 nM. Moreover, in test [1], the “Selectivity CDK9 over CDK2: IC50 (CDK2)/IC50 (CDK9)” value is given as 29.
For `CS(=O)(=O)Cc1cccc(Nc2ncc(F)c(-c3ccc(F)c4ccoc34)n2)c1` [Example 1, 5-Fluoro-4-(4-fluoro-1-benzofuran-7-yl)-N-{3-[(methylsulfonyl)methyl]-phenyl}pyrimidin-2-amine] the same measures were 4 nM, 300 nM, 330 nM, 290 nM and 44.
In the case of `CCS(=O)(=O)Cc1cccc(Nc2ncc(F)c(-c3ccc(F)c4ccoc34)n2)c1` [Example 2, N-{3-[(Ethylsulfonyl)methyl]phenyl}-5-fluoro-4-(4-fluoro-1-benzofuran-7-yl)pyrimidin-2-amine], the IC50 worked out at 3 nM in test [1], 114 nM in test [3] and 100 nM in test [4]. In addition, the “Selectivity CDK9 over CDK2: IC50 (CDK2)/IC50 (CDK9)” value in test [1] came out at 37.
With `CS(=O)(=O)Cc1cc(F)cc(Nc2ncc(F)c(-c3ccc(F)c4ccoc34)n2)c1` [Example 3], the IC50 in test [1] was 2 nM; in test [2], 392 nM; in test [3] it was 230 nM; in test [4], 239 nM.
